From PMC12113339, “Miltefosine analogues with comparable antileishmanial activity and significantly reduced macrophage cytotoxicity” (Memórias do Instituto Oswaldo Cruz, 2025)
Read-outs that look alike come from different tables or passages of the source.

How the values were obtained:
[1] = system: Leishmania amazonensis promastigotes; assay: microbe, parasite or virus in culture; type: cell-based; conditions: for SI (CC50/EC50), promastigotes: CC50 J774A.1 / EC50 promastigotes; for EC50: Leishmania amazonensis
Method: (§1) Cells - Leishmania (L.) amazonensis (MHOM/BR/75/Josefa) and green fluorescent protein (GFP)-labelled L. amazonensis (IFLA/BR/67/PH8) reference strains in their promastigote form were grown in 24-well microtiter plates containing 2 mL of Grace’s insect medium supplemented with 20% heat-inactivated FCS, 2 mM L-glutamine, 100 U/mL penicillin, and 100 µg/mL streptomycin, as previously described.[11] ^, [12] The promastigotes were collected for the experiments when the highest proportion of infective metacyclics was reached (6th day of culture). The J774.A1 murine macrophage cell line was obtained from the cell bank of Rio de Janeiro (NCE/UFRJ). Macrophages were cultured in RPMI-1640 medium supplemented with 10% FCS, 2 mM L-glutamine, 100 U/mL penicillin, and 100 μg/mL streptomycin at 36.5 °C in a humidified incubator containing 5% CO2.
(§2) In vitro assays of antileishmanial activity and macrophage cytotoxicity - Parasites at different cell concentrations (5 x 10^6, 1 x 10^7, 1 x 10^8, and 1 x 10^9 cells/mL), or J774.A1 macrophages at 1 x 10^6 cells/mL, were treated with increasing concentrations of MIL or its analogues, TC387, TC388, and TC437 (Fig. 1), which were initially diluted in an ethanol/DMSO mixture (1:1, v/v) at 25 or 250 mg/mL and then diluted in culture medium supplemented with 10% FCS. Promastigote or macrophage samples (100 µL) containing six different concentrations of the compounds (5-160 μM for promastigotes and 200-6,400 μM for macrophages) were prepared in 96-well microtiter plates and incubated for 24 h at 26 °C for promastigotes or 36.5 °C for macrophages. Cell viability was quantified by measuring the reduction of MTT to formazan by mitochondrial reductases. Formazan absorbance was read on the enzyme-linked immunosorbent assay (ELISA) reader at 550 nm, and the half maximal effective concentration (EC50) or half-maximal cytotoxic concentration (CC50) values were determined based on the best fit of the sigmoidal curve on the absorbance data versus the compound concentrations.

[2] = system: amastigotes internalised within J774.A1 macrophages; set-up: method as in Scariot et al. 13; conditions: ref Scariot et al. 13; cited from earlier work
[3] = system: L. amazonensis promastigotes; set-up: method as in Scariot et al. 13; conditions: ref Scariot et al. 13; cited from earlier work
[4] = system: plasma membranes of Leishmania amazonensis promastigotes; assay: Best fit of eq. 3 to EC50 versus cell concentration (biophysical parameters); type: cell-based; conditions: for EC50: Leishmania amazonensis, read-out: cw50, concentration in the aqueous phase that inhibits parasite growth by half; for cm50, concentration in the membrane that inhibits parasite growth by half: from KM/W and cw50
Text: In cell suspension assays, the concentration of lipophilic compounds within the membrane can exceed that in the aqueous medium by over 10,000-fold (Log KM/W > 4). In a well-diluted cell suspension, the quantity of compound associated with the membrane can be negligible due to the relatively small membrane volume; consequently, the compound predominantly resides in the aqueous phase, rendering its EC50 value effectively equivalent to its concentration in that phase, denoted as cw50. However, as cell concentration increases, the enhanced membrane volume results in a significant elevation of the EC50 compared to cw50. The equation that describes the variation of MIL EC50 values in relation to cell concentration in the assay has been derived and is expressed as follows:[10] ^, [11]
EC50=[(Vmc. cc)^-1+ KM/W/ (Vmc . cc)^-1+1)] cw50 (3)
Where Vmc is the estimated cell membrane volume for an L. amazonensis promastigote, previously estimated as 8.17 x 10^-13 mL,[11] and cc is the number of cells per mL. The parameters KM/W and cw50 are covariant in eq. 3, and their values can be determined as best-fit parameters of eq. For very dilute samples, the plasma membrane content is small, and the EC50 and cw50 values are practically the same; assuming in eq. 3 that (Vmc . cc)^-1 >> KM/W, the EC50 = ~cw50. For high concentrations of cells, a remarkable amount of the compound goes to the membrane, and the EC50 value is much higher than the cw50 value. The cm50 value can also be determined from the […] relationship.

[5] = system: GFP-labelled L. amazonensis amastigotes within J774.A1 macrophages; assay: microbe, parasite or virus in culture; type: cell-based, Leishmania amazonensis; conditions: for Minimum concentration required to significantly reduce the percentage of macrophages infected with GFP-expressing amastigotes / Minimum concentration required to significantly decrease the mean fluorescence intensity: 24 h of treatment; for Minimum concentration required to significantly reduce the percentage of macrophages infected with GFP-expressing amastigotes: % GFP+ cells; for Minimum concentration required to significantly decrease the mean fluorescence intensity: MFI; for SI (CC50/EC50), amastigotes: CC50 J774A.1 / EC50 amastigotes; for EC50: Leishmania amazonensis, intracellular amastigotes in J774.A1, 24 h treatment, % infected cells, read-out: EC50 ± SD, amastigotes
Method: J774.A1 macrophage infection - GFP-labelled L. amazonensis was cultivated in Grace’s insect medium supplemented as described above. The GFP-labelled parasites were selected using 30 μg/mL hygromycin B.[21] J774.A1 macrophages were cultured in RPMI-1640 medium supplemented with 10% FCS, 2 mM L-glutamine, 11 mM sodium bicarbonate, 100 U/mL penicillin, and 100 µg/mL streptomycin. A sample with 4 x 10^6 cells/mL was infected with GFP-L. amazonensis (five parasites/cell) from six-day cultures for 24 h. Following infection, the cells were washed with 1x phosphate-buffered saline (PBS) to remove non-internalised parasites and cultured for an additional 24 h in the presence of MIL or its analogues at different concentrations (7.5-240 μM).
After cooling to ~4 °C, samples were collected by mechanical harvesting of adherent cells, washed twice with 1x PBS, and fixed with 1% paraformaldehyde for flow cytometry analysis using a BD Accuri™ C6 Flow Cytometry instrument (BD Bioscience, San Jose, CA, USA). Macrophages were selected by forward versus side scatter (FSC vs SSC). The data were analysed using FCS Express software (De Novo Software^TM, Glendale, CA, USA). The percentage of cells expressing GFP^+ (% infected cells) and mean fluorescence intensity (estimated amount of internalised parasites) were evaluated. The mean EC50 values were determined based on the best-fit sigmoidal curve plotted for infection percentage versus compound concentration, considering the maximum and minimum percentages of infected cells.

[6] = Macrophage cytotoxicity (MTT cell viability); type: cell-based, murine; conditions: mouse, J774.A1 macrophages, J774A.1 cells
Method: as §1, §2

[7] = Haemolytic potential in PBS; type: cell-based; conditions: human, washed erythrocytes in PBS, haematocrit 2%, 2 h at 36.5 °C, read-out: Erythrocytes in PBS - % haemolysis; for hemolysis at 2 h, 6.6 mM: 6.6 mM (22 times 300 µM)
Method: To assess the haemolytic potential in PBS, blood was initially diluted threefold in PBS and centrifuged at 800 × g for 10 min at 4 °C. Plasma and white blood cells were removed, and the remaining cells were resuspended in PBS. Erythrocytes were washed twice in PBS, discarding the supernatant after centrifugation. Erythrocytes were then added to a micellar suspension of the compounds at various concentrations in PBS (0.3-10 mM), achieving a final haematocrit of 2%. Samples were incubated for 2 h at 36.5 ± 1 °C, and haemolysis percentages and HC50 values were determined as described above.

[8] = Haemolytic potential in whole blood; type: cell-based, human; conditions: human, whole blood reconstituted from plasma and blood cells, 24 h at 7 °C, read-out: Whole blood - % haemolysis
Method: (§3) Haemolytic potential in whole blood and PBS - Blood was collected from a university blood bank, adhering to an approved protocol by the Ethics Committee for Human and Animal Medical Research at Hospital das Clínicas, Universidade Federal de Goiás (CAAE: 81316417.1.0000.5078). To evaluate the haemolytic potential of MIL and its analogues (TC387, TC388, and TC437) in whole blood, plasma was separated by centrifugation at 1800 × g for 10 min at 4 °C. Next, 58 µL of plasma samples containing different concentrations of the compounds were prepared (in this case the compounds were diluted directly in blood plasma to final concentrations in the range of 2.5-12.5 mM), and 42 µL of the blood cells (100%) were added to each sample to reconstitute the whole blood. Samples were incubated for 24 h at 7 ± 1 °C, and several agitations were made in this period. After incubation, 1.4 mL PBS was added to each sample, and the tubes were centrifuged (3500 x g for 10 min). The percentage of haemolysis was determined based on the absorbance of haemoglobin in the supernatant at 540 nm relative to the sample without treatment (control). The compound concentration required for 50% haemolysis (HC50) was calculated by fitting the percentage of haemolysis versus compound concentration data to a sigmoidal curve.

whole blood = assay: Haemolytic potential in whole blood; type: cell-based, human; conditions: 7.5 mM, 24 h at 7 °C
Method: as §3

[9] = 24 h, read-out: EC50 ± SD, promastigotes, 24 h at 26 °C, MTT
[10] = best-fit parameter of eq. 3, equivalent to EC50 for diluted samples

SMILES	SI (CC50/EC50), promastigotes [1]	EC50 [1, 9] [µM]	EC50 [4, 10] [µM]	cm50, concentration in the membrane that inhibits parasite growth by half [4]	Minimum concentration required to significantly reduce the percentage of macrophages infected with GFP-expressing amastigotes [5] [µM]	Minimum concentration required to significantly decrease the mean fluorescence intensity [5] [µM]	SI (CC50/EC50), amastigotes [5]	EC50 [5] [µM]	CC50 at 24 h [6] [µM]	hemolysis at 2 h, 3.3 mM [7] [%]	hemolysis at 2 h, 6.6 mM [7] [%]	hemolysis at 2 h, 10 mM [7] [%]	hemolysis at 24 h, 7.5 mM [8] [%]	hemolysis at 24 h, 10 mM [8] [%]	further results
CCCCCCCCCCCCCCCCOP(=O)([O-])OCC[N+](C)(C)C [MIL, hexadecylphosphocholine, reference compound]	around 6	13 ± 3	9.4 ± 1.2	0.81 ± 0.07 (B) M	15	15	5	17 ± 3	77 ± 23	–	–	–	–	–	SI (CC50/EC50), promastigotes ([1]; listed as Miltefosine): 6; EC50 ([1]; read-out: EC50, promastigotes, cell concentration 1 x 10^7 parasites/mL): ~13 µM; EC50 ([1]; read-out: EC50, promastigotes, cell concentration 1 x 10^9 parasites/mL): ~660 µM; IC50 [2]: 2 µM; IC50 [3]: 21 µM
COc1cccc(CCCCCCCCOP(=O)([O-])OCC[N+](C)(C)C)c1 [TC387]	34	27 ± 9	27.2 ± 2.9	0.53 ± 0.09 (A) M	7.5	7.5	80	12 ± 3	956 ± 277	26.2	< 50	60.4	20.5	75.3	Whole blood - % haemolysis (whole blood): 22.5 ± 3.7%
COC(=O)c1c(CCCCCCCCOP(=O)([O-])OCC[N+](C)(C)C)cccc1OC [TC388]	42	39 ± 11	38.9 ± 3.8	0.50 ± 0.13 (A) M	7.5	7.5	–	10 ± 2	1630 ± 404	8.5	–	25.3	–	14.5	hemolysis at 24 h, 12.5 mM ([8]; 12.5 mM): 24.2 ± 6.4%
COc1cc(CCCCCCCCOP(=O)([O-])OCC[N+](C)(C)C)cc(OC)c1 [TC437]	29	24 ± 7	–	0.56 ± 0.11 (A) M	15	7.5	43	16 ± 3	692 ± 212	29.8	< 50	65.4	40.6 ± 7.4	92.5	EC50 [4]: 22.8 ± 3.7 µM
